From ChEMBL document CHEMBL1146136, “Optimization of 2,4-diaminopyrimidines as GHS-R antagonists: side chain exploration” (Bioorg Med Chem Lett, 2006)

Tests used:
[1] = target: T1, Growth hormone secretagogue receptor type 1 (Homo sapiens, UniProt Q92847); experiment: Inhibition of human GHS receptor by FLIPR; assay type: functional
[2] = target: T1, Growth hormone secretagogue receptor type 1; experiment: Inhibition of human GHS receptor by binding assay
[3] = target: T2, Dihydrofolate reductase (Homo sapiens) (UniProt P00374); experiment: Inhibition of human DHFR receptor at 1 uM
T2 sequence (whole entry): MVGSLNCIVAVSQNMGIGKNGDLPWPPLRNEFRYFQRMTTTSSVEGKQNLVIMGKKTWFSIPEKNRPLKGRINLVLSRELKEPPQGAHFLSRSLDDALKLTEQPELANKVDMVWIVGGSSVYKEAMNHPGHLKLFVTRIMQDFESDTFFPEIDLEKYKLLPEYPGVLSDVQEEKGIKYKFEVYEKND

[4] = target: T2, Dihydrofolate reductase (Homo sapiens); experiment: Inhibition of human DHFR receptor at 10 uM
[5] = target: T2, Dihydrofolate reductase (Homo sapiens); experiment: Inhibition of human DHFR receptor at 30 uM

T1 sequence (Q92847 whole entry): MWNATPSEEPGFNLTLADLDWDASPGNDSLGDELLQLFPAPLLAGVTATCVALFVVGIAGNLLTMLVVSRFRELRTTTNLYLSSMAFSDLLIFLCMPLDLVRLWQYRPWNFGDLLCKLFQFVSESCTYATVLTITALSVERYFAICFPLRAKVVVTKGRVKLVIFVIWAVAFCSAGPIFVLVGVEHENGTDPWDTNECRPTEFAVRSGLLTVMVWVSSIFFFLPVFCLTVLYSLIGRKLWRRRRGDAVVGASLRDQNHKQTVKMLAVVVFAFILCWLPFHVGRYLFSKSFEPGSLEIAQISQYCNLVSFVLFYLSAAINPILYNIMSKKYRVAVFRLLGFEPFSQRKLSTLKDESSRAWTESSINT

IC50 [1] [nM]	IC50 [2] [nM]	inhibition [3] [%]	inhibition [4] [%]	inhibition [5] [%]	SMILES
1420	61				CC(C)CCNCc1nc(N)nc(N)c1-c1ccc(NCc2ccc(S(C)(=O)=O)cc2)cc1
62	6				CCCCCCc1nc(N)nc(N)c1-c1ccc(NCc2ccc(S(C)(=O)=O)cc2)cc1
5.4	2				CS(=O)(=O)c1ccc(CNc2ccc(-c3c(N)nc(N)nc3CCC(=O)NCc3cccc(Cl)c3)cc2)cc1
82					CCOC(=O)CCc1nc(N)nc(N)c1-c1ccc(NCc2ccc(S(C)(=O)=O)cc2)cc1
69	4				CN(Cc1ccccc1)Cc1nc(N)nc(N)c1-c1ccc(NCc2ccc(S(C)(=O)=O)cc2)cc1
34					CS(=O)(=O)c1ccc(CNc2ccc(-c3c(N)nc(N)nc3CN3Cc4ccccc4C3)cc2)cc1
237	151				CCCNc1nc(N)nc(CC)c1-c1ccc(NCc2ccc(S(C)(=O)=O)cc2)cc1
38	6				CCCCCCCc1nc(N)nc(N)c1-c1ccc(NCc2ccc(S(C)(=O)=O)cc2)cc1
57	5.2				CCCCCCCCc1nc(N)nc(N)c1-c1ccc(NCc2ccc(S(C)(=O)=O)cc2)cc1
2580	186				CN(C)Cc1nc(N)nc(N)c1-c1ccc(NCc2ccc(S(C)(=O)=O)cc2)cc1
11		47	87		CC(C)(C)c1nc(N)nc(N)c1-c1ccc(NCc2ccc(S(C)(=O)=O)cc2)cc1
9	2.5	42	84		CN(Cc1nc(N)nc(N)c1-c1ccc(NCc2ccc(S(C)(=O)=O)cc2)cc1)c1ccccc1
54			25	38	CS(=O)(=O)c1ccc(CNc2ccc(-c3c(N)nc(N)nc3[C@@H]3CCCO3)cc2)cc1
53	7.5				COCc1nc(N)nc(N)c1-c1ccc(NCc2ccc(S(C)(=O)=O)cc2)cc1
57			84		CS(=O)(=O)c1ccc(CNc2ccc(-c3c(N)nc(N)nc3[C@H]3CCCO3)cc2)cc1
3430	122				CS(=O)(=O)c1ccc(CNc2ccc(-c3c(N)nc(N)nc3CNC3CCCC3)cc2)cc1
13					CS(=O)(=O)c1ccc(CNc2ccc(-c3c(N)nc(N)nc3CN3CCc4ccccc43)cc2)cc1
1380	279				CNCc1nc(N)nc(N)c1-c1ccc(NCc2ccc(S(C)(=O)=O)cc2)cc1
380	450				CCc1nc(N)nc(N(CC)CC)c1-c1ccc(NCc2ccc(S(C)(=O)=O)cc2)cc1

IC50 [1] [nM]	IC50 [2] [nM]	inhibition [3] [%]	inhibition [4] [%]	inhibition [5] [%]	SMILES
3	0.4	82	93		Cc1cc(C)cc(CNC(=O)CCc2nc(N)nc(N)c2-c2ccc(NCc3ccc(S(C)(=O)=O)cc3)cc2)c1
2480	199				CCc1nc(N)nc(NCC(C)C)c1-c1ccc(NCc2ccc(S(C)(=O)=O)cc2)cc1
10					CN(Cc1nc(N)nc(N)c1-c1ccc(NCc2ccc(S(C)(=O)=O)cc2)cc1)c1ccc(F)cc1
316	16				CS(=O)(=O)c1ccc(CNc2ccc(-c3c(N)nc(N)nc3CNCC3CCCC3)cc2)cc1
> 10000	244				CCNc1nc(N)nc(CC)c1-c1ccc(NCc2ccc(S(C)(=O)=O)cc2)cc1
12	1.5				CS(=O)(=O)c1ccc(CNc2ccc(-c3c(N)nc(N)nc3CNc3ccc(F)cc3)cc2)cc1
1.9	0.4				CC(C)=CCOCc1nc(N)nc(N)c1-c1ccc(NCc2ccc(S(C)(=O)=O)cc2)cc1
9.7	3.4				Cc1ccc(COCc2nc(N)nc(N)c2-c2ccc(NCc3ccc(S(C)(=O)=O)cc3)cc2)o1
772	192				CCc1nc(N)nc(N(C)C)c1-c1ccc(NCc2ccc(S(C)(=O)=O)cc2)cc1
38					CS(=O)(=O)c1ccc(CNc2ccc(-c3c(N)nc(N)nc3C3Cc4ccccc4O3)cc2)cc1 (stereo not given)
37	9.7	> 99	> 99		CCc1nc(N)nc(N)c1-c1ccc(NCc2ccc(S(C)(=O)=O)cc2)cc1
66			38	55	CS(=O)(=O)c1ccc(CNc2ccc(-c3c(N)nc(N)nc3[C@H]3CC4C=CC3C4)cc2)cc1 (stereo not given in full)
40	10				CC(C)Cc1nc(N)nc(N)c1-c1ccc(NCc2ccc(S(C)(=O)=O)cc2)cc1
> 10000	601				CCc1nc(N)nc(NC2CC2)c1-c1ccc(NCc2ccc(S(C)(=O)=O)cc2)cc1
41		29	58		CS(=O)(=O)c1ccc(CNc2ccc(-c3c(N)nc(N)nc3CN3CCc4ccccc4C3)cc2)cc1
945	65				CS(=O)(=O)c1ccc(CNc2ccc(-c3c(N)nc(N)nc3CNC3CC3)cc2)cc1
69	37	41	82		CCc1nc(N)nc(NC)c1-c1ccc(NCc2ccc(S(C)(=O)=O)cc2)cc1
3080	354				CCc1nc(N)nc(NCCO)c1-c1ccc(NCc2ccc(S(C)(=O)=O)cc2)cc1
49	96				CS(=O)(=O)c1ccc(CNc2ccc(-c3c(N)nc(N)nc3CNCc3ccccc3)cc2)cc1

IC50 [1] [nM]	IC50 [2] [nM]	inhibition [3] [%]	inhibition [4] [%]	inhibition [5] [%]	SMILES
9.1	5.5				CS(=O)(=O)c1ccc(CNc2ccc(-c3c(N)nc(N)nc3CNc3ccccc3)cc2)cc1
7160	634				CS(=O)(=O)c1ccc(CNc2ccc(-c3c(N)nc(N)nc3CN)cc2)cc1
14	5.4				CC(C)c1nc(N)nc(N)c1-c1ccc(NCc2ccc(S(C)(=O)=O)cc2)cc1
> 10000	3250				CCc1nc(N)nc(N2CCOCC2)c1-c1ccc(NCc2ccc(S(C)(=O)=O)cc2)cc1
180					CS(=O)(=O)c1ccc(CNc2ccc(-c3c(N)nc(N)nc3C3COc4ccccc4O3)cc2)cc1 (stereo not given)
137		3	21		CS(=O)(=O)c1ccc(CNc2ccc(-c3c(N)nc(N)nc3C3CC4CCC3C4)cc2)cc1 (stereo not given)
7.1	0.3				CS(=O)(=O)c1ccc(CNc2ccc(-c3c(N)nc(N)nc3COCc3ccccc3)cc2)cc1
21		73	97		CS(=O)(=O)c1ccc(CNc2ccc(-c3c(N)nc(N)nc3C3CCCC3)cc2)cc1
354	248				CCc1nc(N)nc(NCc2ccccc2)c1-c1ccc(NCc2ccc(S(C)(=O)=O)cc2)cc1
36		16	50		CS(=O)(=O)c1ccc(CNc2ccc(-c3c(N)nc(N)nc3C3CCCCC3)cc2)cc1
211	19				CCCCCc1nc(N)nc(N)c1-c1ccc(NCc2ccc(S(C)(=O)=O)cc2)cc1
> 10000	700				CCc1nc(N)nc(Nc2ccccc2)c1-c1ccc(NCc2ccc(S(C)(=O)=O)cc2)cc1
283			45		CS(=O)(=O)c1ccc(CNc2ccc(-c3c(N)nc(N)nc3[C@@H]3CC4C=CC3C4)cc2)cc1 (stereo not given in full)
6.8	2.8	88	97		CC(C)CCOCc1nc(N)nc(N)c1-c1ccc(NCc2ccc(S(C)(=O)=O)cc2)cc1
736	276				CCCCNc1nc(N)nc(CC)c1-c1ccc(NCc2ccc(S(C)(=O)=O)cc2)cc1
19					CS(=O)(=O)c1ccc(CNc2ccc(-c3c(N)nc(N)nc3C3CC3)cc2)cc1
187	38				CS(=O)(=O)c1ccc(CNc2ccc(-c3c(N)nc(N)nc3COCc3cccnc3)cc2)cc1
32	11				CCCCc1nc(N)nc(N)c1-c1ccc(NCc2ccc(S(C)(=O)=O)cc2)cc1
14					CS(=O)(=O)c1ccc(CNc2ccc(-c3c(N)nc(N)nc3C3CCC3)cc2)cc1

SMILES	IC50 [1] [nM]	IC50 [2] [nM]	inhibition [3] [%]	inhibition [4] [%]	inhibition [5] [%]
CS(=O)(=O)c1ccc(CNc2ccc(-c3c(N)nc(N)nc3COCc3ccco3)cc2)cc1	9.6	2.7			
